Earlier results, collected in patent US4332794A, “6"-Deoxydibekacin, 4",6"-dideoxydibekacin and 1-N-aminoacyl derivatives thereof, and the production of these new compounds” (Zaidan Hojin Biseibutsu Kagaku Kenkyu Kai, priority 1979, dated 1982).

Columns and labels:
[1] = Japanese patent application No. 54733/79; cited from earlier work
bacteria = settings: Japanese patent application No. 54733/79; cited from earlier work
[2] = test system: dibekacin-resistant bacteria; settings: prior art; cited from earlier work

Structure (SMILES)	oto-toxicity [1]	antibacterial activity compared to amikacin (bacteria)	antibacterial activity [2]
C[C@H]1O[C@H](O[C@@H]2[C@@H](O)[C@H](O[C@H]3O[C@H](CN)[C@@H](O)[C@H](O)[C@H]3O)[C@@H](N)C[C@H]2NC(=O)[C@@H](O)CCN)[C@H](O)[C@@H](N)[C@@H]1O [6"-deoxyamikacin, 1-N-(L-4-amino-2-hydroxybutyryl)-6"-deoxykanamycin A]	low oto-toxicity	antibacterial activity as high as that of amikacin	–
C[C@@H]1C[C@H](N)[C@@H](O)[C@@H](O[C@@H]2[C@@H](O)[C@H](O[C@H]3O[C@H](CN)[C@@H](O)[C@H](O)[C@H]3O)[C@@H](N)C[C@H]2NC(=O)[C@@H](O)CCN)O1 [4",6"-dideoxyamikacin, 1-N-(L-4-amino-2-hydroxybutyryl)-4",6"-dideoxykanamycin A]	low oto-toxicity	antibacterial activity as high as that of amikacin	–
NCC[C@H](O)C(=O)N[C@@H]1C[C@H](N)[C@@H](O[C@H]2O[C@H](CN)CC[C@H]2N)[C@H](O)[C@H]1O[C@H]1O[C@H](CO)[C@@H](O)[C@H](N)[C@H]1O [1-N-(L-4-amino-2-hydroxybutyryl)-3',4'-dideoxykanamycin B]	–	–	effective against dibekacin-resistant bacteria
